In patent US20210115018A1, “PIPERIDINE COMPOUNDS AS COVALENT MENIN INHIBITORS” (THE REGENTS OF THE UNIVERSITY OF MICHIGAN, priority 2018, published 2021):

What follows are compounds tested against T1, menin protein (Homo sapiens, UniProt O00255) (assay: Fluorescence polarization (FP) competitive binding assay, menin binding affinity). Conditions: FP competition with FAM-MM2 probe 2 nM, menin 4 nM, 30 minutes room temperature.
T1 sequence (O00255 1-610): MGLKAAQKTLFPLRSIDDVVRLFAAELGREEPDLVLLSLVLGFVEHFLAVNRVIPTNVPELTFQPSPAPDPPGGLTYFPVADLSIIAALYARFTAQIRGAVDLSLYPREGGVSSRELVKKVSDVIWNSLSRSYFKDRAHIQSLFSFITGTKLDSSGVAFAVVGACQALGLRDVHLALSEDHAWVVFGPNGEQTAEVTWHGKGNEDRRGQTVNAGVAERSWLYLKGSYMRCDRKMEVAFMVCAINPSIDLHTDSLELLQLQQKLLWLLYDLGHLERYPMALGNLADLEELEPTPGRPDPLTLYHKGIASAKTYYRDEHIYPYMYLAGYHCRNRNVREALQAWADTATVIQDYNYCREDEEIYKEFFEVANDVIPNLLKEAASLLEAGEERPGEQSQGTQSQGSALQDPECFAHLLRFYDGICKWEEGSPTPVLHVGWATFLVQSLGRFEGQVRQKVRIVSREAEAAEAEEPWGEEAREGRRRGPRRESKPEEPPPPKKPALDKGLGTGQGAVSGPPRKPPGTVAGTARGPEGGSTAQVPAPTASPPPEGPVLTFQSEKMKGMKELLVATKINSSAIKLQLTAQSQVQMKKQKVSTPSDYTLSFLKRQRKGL
Procedure: A fluorescence polarization (FP) competitive binding assay was used to determine the binding affinities of representative menin inhibitors. A FAM labeled fluorescent probe was designed and synthesized based on a MLL1 peptide (FAM-MM2). Equilibrium dissociation constant (Kd) value of FAM-MM2 to menin protein was determined from protein saturation experiments by monitoring the total fluorescence polarization of mixtures composed with the fluorescent probe at a fixed concentration and the protein with increasing concentrations up to full saturation. Serial dilutions of the protein were mixed with FAM-MM2 to a final volume of 200 μl in the assay buffer (PBS with 0.02% Bovine γ-Globulin and 4% DMSO. 0.01% Triton X-100 was added right before assays). Final FAM-MM2 concentration was 2 nM. Plates were incubated at room temperature for 30 minutes with gentle shaking to assure equilibrium. FP values in millipolarization units (mP) were measured using the Infinite M-1000 plate reader (Tecan U.S., Research Triangle Park, N.C.) in Microfluor 1 96-well, black, v-bottom plates (Thermo Scientific, Waltham, Mass.) at an excitation wavelength of 485 nm and an emission wavelength of 530 nm.
The IC50 of representative Compounds of the Disclosure, see Table 3, were determined in a competitive binding experiment. Mixtures of 5 μl of the tested compounds in DMSO and 195 μl of preincubated protein/probe complex solution in the assay buffer were added into assay plates which were incubated at room temperature for 30 minutes with gentle shaking. Final concentration of the menin protein was 4 nM, and final probe concentration is 2 nM. Negative controls containing protein/probe complex only (equivalent to 0% inhibition), and positive controls containing only free probes (equivalent to 100% inhibition), were included in each assay plate. FP values were measured as described above. IC50 values were determined by nonlinear regression fitting of the competition curves.
Work on C=CC(=O)N1CCN(C(C)=O)[C@H](CS(=O)(=O)c2ccc(N3CC(CN4CCC([C@@](CN5CCC5)(c5cccc(F)c5)[C@H]5CCC[C@@H]5NC(=O)OC)CC4)(OC)C3)cc2)C1 [compound 238] yielded an IC50 of 7 nM. Compound C=CC(=O)N1CCN(C(C)=O)CC(S(=O)(=O)c2ccc(N3CC(CN4CCC([C@@](CN5CCC5)(c5cccc(F)c5)[C@H]5CCC[C@@H]5NC(=O)OC)CC4)(OC)C3)cc2)C1 (stereo partly drawn) [compound 241] has an IC50 of 10 nM. For C#CC(=O)N1CC(S(=O)(=O)c2ccc(N3CC(CN4CCC([C@@](CN5CCC5)(c5cccc(F)c5)[C@H]5CCC[C@@H]5NC(=O)OC)CC4)C3)cc2)C1 [Cpd. No. 15, methyl ((1S,2R)-2-((S)-2-(azetidin-1-yl)-1-(3-fluorophenyl)-1-(1-((1-(4-((1-propioloylazetidin-3-yl)sulfonyl)phenyl)azetidin-3-yl)methyl)piperidin-4-yl)ethyl)cyclopentyl)carbamate], the IC50 was 3 nM. For C=C(CN(C)C)C(=O)N1CC(S(=O)(=O)c2ccc(N3CC(CN4CCC([C@@](CN5CCC5)(c5cccc(F)c5)[C@H]5CCC[C@@H]5NC(=O)OC)CC4)C3)cc2)C1 [Cpd. No. 10, methyl ((1S,2R)-2-((S)-2-(azetidin-1-yl)-1-(1-((1-(4-((1-(2-((dimethylamino)methyl)acryloyl)azetidin-3-yl)sulfonyl)phenyl)azetidin-3-yl)methyl)piperidin-4-yl)-1-(3-fluorophenyl)ethyl)cyclopentyl)carbamate], the IC50 was 3 nM. Compound C=C(CN1CCOCC1)C(=O)N1CC(S(=O)(=O)c2ccc(N3CC(CN4CCC([C@@](C#N)(c5cccc(F)c5)[C@H]5CCC[C@@H]5NC(=O)OC)CC4)C3)cc2)C1 [Cpd. No. 28, methyl ((1S,2R)-2-((S)-cyano(3-fluorophenyl)(1-((1-(4-((1-(2-(morpholinomethyl)acryloyl)azetidin-3-yl)sulfonyl)phenyl)azetidin-3-yl)methyl)piperidin-4-yl)methyl)cyclopentyl)carbamate] has an IC50 of 2 nM. In the case of COC(=O)N[C@H]1CCC[C@@H]1[C@@](CN1CCC1)(c1cccc(F)c1)C1CCN(CC2CN(c3ccc(S(=O)(=O)C4CN(C(=O)/C=C/CN5CCOCC5)C4)cc3)C2)CC1 [Cpd. No. 31, methyl ((1S,2R)-2-((R)-2-(azetidin-1-yl)-1-(3-fluorophenyl)-1-(1-((1-(4-((1-((E)-4-morpholinobut-2-enoyl)azetidin-3-yl)sulfonyl)phenyl)azetidin-3-yl)methyl)piperidin-4-yl)ethyl)cyclopentyl)carbamate], the IC50 is reported as 88 nM. C=CC(=O)N1CCN(C(C)=O)[C@@H](CS(=O)(=O)c2ccc(N3CC(CN4CCC([C@@](CN5CCC5)(c5cccc(F)c5)[C@H]5CCC[C@@H]5NC(=O)OC)CC4)(OC)C3)cc2)C1 [compound 239] was tested, and the IC50 was 6 nM. C=C(CN1CCOCC1)C(=O)N1CC(S(=O)(=O)c2cccc(N3CC(CN4CCC([C@@](CN5CCC5)(c5cccc(F)c5)[C@H]5CCC[C@@H]5NC(=O)OC)CC4)C3)c2)C1 [Cpd. No. 30, methyl ((1S,2R)-2-((S)-2-(azetidin-1-yl)-1-(3-fluorophenyl)-1-(1-((1-(3-((1-(2-(morpholinomethyl)acroyloyl)azetidin-3-yl)sulfonyl)phenyl)azetidin-3-yl)methyl)piperidin-4-yl)ethyl)cyclopentyl)carbamate] gave an IC50 of 5 nM. C=CC(=O)N1CCCC[C@H](S(=O)(=O)c2ccc(N3CC(F)(CN4CCC([C@@](CN5CCC5)(c5cccc(F)c5)[C@H]5CCC[C@@H]5NC(=O)OC)CC4)C3)c(F)c2)C1 [compound 237] showed an IC50 of 4 nM. With C=CC(=O)N1CCCC[C@H](S(=O)(=O)c2ccc(N3CC(CN4CCC([C@@](CN5CCC5)(c5cccc(F)c5)[C@H]5CCC[C@@H]5NC(=O)OC)CC4)(OC)C3)c(F)c2)C1 [compound 235] the IC50 was 4 nM. Compound C=CC(=O)N1CC(S(=O)(=O)c2ccc(N3CC(F)(CN4CCC([C@@](CN5CCC5)(c5cccc(F)c5)[C@H]5CCC[C@@H]5NC(=O)OC)CC4)C3)cc2)C1 [Cpd. No. 16, methyl ((1S,2R)-2-((S)-1-(1-((1-(4-((1-acryloylazetidin-3-yl)sulfonyl)phenyl)-3-fluoroazetidin-3-yl)methyl)piperidin-4-yl)-2-(azetidin-1-yl)-1-(3-fluorophenyl)ethyl)cyclopentyl)carbamate] has an IC50 of 3 nM. COC(=O)N[C@H]1CCC[C@@H]1[C@](CN1CCC(C)(O)CC1)(c1cccc(F)c1)C1CCN(CC2CN(c3ccc(S(=O)(=O)C4CN(C(=O)/C=C/CN(C)C)C4)cc3)C2)CC1 [Cpd. No. 8, methyl ((1S,2R)-2-((S)-1-(1-((1-(4-((1-((E)-4-(dimethylamino)but-2-enoyl)azetidin-3-yl)sulfonyl)phenyl)azetidin-3-yl)methyl)piperidin-4-yl)-1-(3-fluorophenyl)-2-(4-hydroxy-4-methylpiperidin-1-yl)ethyl)cyclopentyl)carbamate] gave an IC50 of 2 nM. For C=CC(=O)N1CCCC[C@H](S(=O)(=O)c2ccc(N3CC(CN4CCC([C@@](CN5CCC5)(c5cccc(F)c5)[C@H]5CCC[C@@H]5NC(=O)OC)CC4)(OC)C3)cc2)C1 [compound 234], the IC50 was 4 nM.

These compounds were tested on MV4-11 (assay: 7-day proliferation assay (WST-8), cell growth inhibition). Conditions: Homo sapiens, MV4-11, 168 h, MV4-11 cells, 7 days.
Assay type: cell-based
Procedure: The effect of representative Compounds of the Disclosure on cell viability was determined in a 7-day proliferation assay. Cells were maintained in the appropriate culture medium with 10% FBS at 37° C. and an atmosphere of 5% CO2.
Cells were seeded in 96-well flat bottom (Corning COSTAR, Corning, NY, cat#3595) at a density of 2,000-3,000 cells/well in 100 μl of culture medium. Compounds were serially diluted in the appropriate medium, and […] the diluted compounds were added to the appropriate wells of the cell plate. After the addition of compounds, the cells were incubated at 37° C. in an atmosphere of 5% CO2 for 7 days. Cell viability was determined using the WST (2-(2-methoxy-4-nitrophenyl)-3-(4-nitrophenyl)-5-(2,4-disulfophenyl)-2H-tetrazolium, monosodium salt) Cell Counting-8 Kit (Dojindo Molecular Technologies, Inc., Rockville, Md.) according to the manufacturers' instructions.
WST-8 reagent was added to each well at a final concentration of 10% (v/v), and then the plates were incubated at 37° C. for 1-2 hours for color development. The absorbance was measured at 450 nm using a SPECTRAmax PLUS plate reader (Molecular Devices, Sunnyvale, Calif.). The readings were normalized to the DMSO-treated cells and the half maximal inhibitory concentration (IC50) was calculated by nonlinear regression (four parameters sigmoid fitted with variable slope, least squares fit, and no constraint) analysis using the GraphPad Prism 5 software (GraphPad Software, La Jolla, Calif.).
In the case of COC(=O)N[C@H]1CCC[C@@H]1[C@](CN1CCC1)(c1cccc(F)c1)C1CCN(CC2(F)CN(c3ccc(S(=O)(=O)c4cccc(C(=O)NC/C=C/S(C)(=O)=O)c4)cc3)C2)CC1 [compound 120], the IC50 is reported as < 10 nM. In the case of C=CC(=O)N1CCOC[C@@H](S(=O)(=O)c2ccc(N3CC(F)(CN4CCC([C@@](CNC(=O)OC)(c5cccc(F)c5)[C@H]5CCC[C@@H]5NC(=O)OC)CC4)C3)c(F)c2)C1 [compound 180], the IC50 is reported as < 100 nM. In the case of CC#CC(=O)N1CC(S(=O)(=O)c2ccc(N3CC(O)(CN4CCC([C@@](CNC(C)=O)(c5cccc(F)c5)[C@H]5CCC[C@@H]5NC(=O)OC)CC4)C3)cc2)C1 [compound 207], the IC50 is reported as < 100 nM. With COC(=O)N[C@H]1CCC[C@@H]1[C@](CN1CCC1)(c1cccc(F)c1)C1CCN(CC2(F)CN(c3ccc(S(=O)(=O)C4CCCN(C(=O)C#CCO)C4)cc3F)C2)CC1 (stereo partly drawn) [compound 121] the IC50 was < 100 nM. C=CC(=O)Nc1cncc(S(=O)(=O)c2ccc(N3CC(F)(CN4CCC([C@@](CN5CCC5)(c5cccc(F)c5)[C@H]5CCC[C@@H]5NC(=O)OC)CC4)C3)c(F)c2)c1 [compound 84] was tested, and the IC50 was < 50 nM. With C=CC(=O)N1CCC[C@@H](S(=O)(=O)c2ccc(N3CC(O)(CN4CCC([C@@](CN5CCC5)(c5cccc(F)c5)[C@H]5CCC[C@@H]5NC(=O)OC)CC4)C3)cc2)C1 [compound 195] the IC50 was < 10 nM. For C=CC(=O)N1CC(S(=O)(=O)c2ccc(N3CC(F)(CN4CCC([C@@](CN5CCC5)(c5cccc(F)c5)[C@H]5CCC[C@@H]5NC(=O)OC)CC4)C3)c(F)c2)C1 [compound 93], the IC50 was < 50 nM. In the case of C=CC(=O)Nc1cc(S(=O)(=O)c2ccc(N3CC(CN4CCC([C@@](CN5CCC5)(c5cccc(F)c5)[C@H]5CCC[C@@H]5NC(=O)OC)CC4)C3)cc2)ccc1N(C)CCN(C)C [compound 74], the IC50 is reported as < 50 nM.
